Data on nine molecules can be found in PubChem BioAssay (NCI).

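Tested at 5 concentrations; 48 h exposure; 96-well plates; endpoints linearly interpolated, else capped at highest concentration. Abbreviation: GI50, concentration required for 50% inhibition of growth. TGI is the concentration that stops growth completely.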

Some test systems named below: ACHN renal; EKVX NSCLC; HOP-92 NSCLC; MALME-3M melanoma; NCI-H226 lung; OVCAR-8 ovarian; RPMI-8226 leukemia; SK-OV-3 ovarian; SNB-75 CNS; SR leukemia.
Common to all, as to assay: NCI tumour cell line growth inhibition, 48 h

On to `O=c1nc2oc3ccc4ccccc4c3cc-2s1`, for which the GI50 in the experiment with ACHN renal is 38.6 µM; in the experiment on EKVX NSCLC, 59.6 µM; in the experiment with HOP-92 NSCLC it was 1.62 µM; with MALME-3M melanoma, 0.743 µM; in the experiment with NCI-H226 lung it was 17.7 µM; in the experiment with OVCAR-8 ovarian, 29.4 µM. The GI50 was 50.9 µM in the experiment on RPMI-8226 leukemia, 15.1 µM in the experiment on SK-OV-3 ovarian, 0.476 µM in the experiment on SNB-75 CNS and 0.458 µM with SR leukemia. In addition, the TGI with ACHN renal was greater than 100 µM; with EKVX NSCLC, greater than 100 µM; with HOP-92 NSCLC it was greater than 57.8 µM; with MALME-3M melanoma it was greater than 100 µM; in the experiment with NCI-H226 lung, greater than 100 µM; in the experiment with OVCAR-8 ovarian, greater than 100 µM. The TGI in the experiment with RPMI-8226 leukemia is greater than 100 µM; with SK-OV-3 ovarian it was greater than 100 µM; in the experiment on SNB-75 CNS it was 10.1 µM; with SR leukemia, greater than 100 µM.

Turning to `COc1cccc(-n2ncc3c(N/N=C/c4ccncc4)ncnc32)c1`, the GI50 was 0.985 µM in the experiment on ACHN renal; greater than 25 µM with EKVX NSCLC; greater than 25 µM with HOP-92 NSCLC; greater than 25 µM in the experiment with MALME-3M melanoma; greater than 6.17 µM in the experiment on NCI-H226 lung; 4.88 µM with OVCAR-8 ovarian. Further, the GI50 in the experiment with RPMI-8226 leukemia was greater than 25 µM; in the experiment on SK-OV-3 ovarian, 1.7 µM; in the experiment with SNB-75 CNS, 2.48 µM; in the experiment on SR leukemia it was 2.12 µM. Further, the TGI with ACHN renal, with EKVX NSCLC, with HOP-92 NSCLC, in the experiment with MALME-3M melanoma, in the experiment on NCI-H226 lung and in the experiment on OVCAR-8 ovarian was greater than 25 µM each time. Further, the TGI with RPMI-8226 leukemia, with SK-OV-3 ovarian, with SNB-75 CNS and with SR leukemia was greater than 25 µM in each case.

With `COc1c2c(nc3ccccc13)-c1cc3c(c(=O)n1C2)COC(=O)C3(O)CC(=O)N1CCOCC1` (stereo not given), the TGI in the experiment with ACHN renal is 14.7 µM; with EKVX NSCLC, greater than 93.6 µM; in the experiment on HOP-92 NSCLC, 63.4 µM; in the experiment on MALME-3M melanoma, greater than 100 µM; in the experiment on NCI-H226 lung, 22.9 µM; in the experiment on OVCAR-8 ovarian, 33.8 µM. The TGI in the experiment on RPMI-8226 leukemia turned out to be 82 µM; with SK-OV-3 ovarian, 68.3 µM; in the experiment on SNB-75 CNS, 11.6 µM; in the experiment on SR leukemia, 17.5 µM.

`CN(C)c1ccc2c(c1)OC(N)=C(C#N)C2c1ccc2c(c1)CCO2` (stereo not given): the GI50 in the experiment with ACHN renal is 0.0683 µM; in the experiment on EKVX NSCLC it was 0.47 µM; in the experiment with HOP-92 NSCLC, 5.69 µM; with MALME-3M melanoma, 14.9 µM; in the experiment on NCI-H226 lung it was 2.38 µM; in the experiment with OVCAR-8 ovarian, 0.39 µM. For the same molecule, the GI50 with RPMI-8226 leukemia is 0.48 µM; with SK-OV-3 ovarian, 0.224 µM; with SNB-75 CNS it was 0.0812 µM; in the experiment with SR leukemia, less than 0.0198 µM. Further, the TGI with ACHN renal is greater than 67.1 µM; in the experiment with EKVX NSCLC it was greater than 100 µM; in the experiment on HOP-92 NSCLC, 74.3 µM; in the experiment with MALME-3M melanoma it was 59.7 µM; in the experiment on NCI-H226 lung it was greater than 62.4 µM; in the experiment on OVCAR-8 ovarian, 39.9 µM. Besides, the TGI in the experiment on RPMI-8226 leukemia is 28.3 µM; in the experiment on SK-OV-3 ovarian, greater than 73.9 µM; with SNB-75 CNS, greater than 49.4 µM; with SR leukemia, greater than 48.2 µM.

On to `CN1CC[C@@H](c2c(O)cc(O)c3c(=O)cc(-c4ccccc4Cl)oc23)[C@@H]1CO`, for which the GI50 is 0.294 µM with ACHN renal; 0.372 µM in the experiment with EKVX NSCLC; 0.19 µM in the experiment with HOP-92 NSCLC; 0.361 µM in the experiment with MALME-3M melanoma; 0.239 µM with NCI-H226 lung; 0.321 µM in the experiment on OVCAR-8 ovarian. The GI50 in the experiment on RPMI-8226 leukemia is 0.362 µM; in the experiment with SK-OV-3 ovarian, 1.4 µM; in the experiment on SNB-75 CNS, 0.224 µM; with SR leukemia, 0.107 µM. Also, the TGI with ACHN renal is greater than 10 µM; with EKVX NSCLC it was greater than 8.02 µM; with HOP-92 NSCLC it was 0.701 µM; in the experiment with MALME-3M melanoma it was 1.58 µM; in the experiment with NCI-H226 lung, 0.878 µM; in the experiment with OVCAR-8 ovarian it was greater than 10 µM. The TGI worked out at 2.73 µM in the experiment with RPMI-8226 leukemia, 9.91 µM with SK-OV-3 ovarian, 0.622 µM with SNB-75 CNS and 0.573 µM with SR leukemia.

Turning to `COc1cc([C@H]2OC[C@H]3[C@@H]2CO[C@@H]3c2cc(OC)c3c(c2)OCO3)cc(OC)c1OC`, the TGI in the experiment on ACHN renal, in the experiment on EKVX NSCLC, in the experiment on HOP-92 NSCLC, with NCI-H226 lung, in the experiment on OVCAR-8 ovarian and in the experiment with RPMI-8226 leukemia was greater than 100 µM throughout. For the same molecule, the TGI in the experiment with SK-OV-3 ovarian, in the experiment on SNB-75 CNS and in the experiment with SR leukemia was greater than 100 µM each time.

Take `N#CC(c1nc2ccccc2nc1Cl)S(=O)(=O)c1ccccc1` (stereo not given): the TGI in the experiment on ACHN renal was greater than 100 µM; in the experiment on EKVX NSCLC, greater than 100 µM; with HOP-92 NSCLC it was 70.1 µM; in the experiment with MALME-3M melanoma, greater than 100 µM; in the experiment on NCI-H226 lung, greater than 100 µM; in the experiment on OVCAR-8 ovarian, greater than 100 µM. Further, the TGI in the experiment on RPMI-8226 leukemia, in the experiment with SNB-75 CNS and in the experiment on SR leukemia was greater than 100 µM each time.

Consider `C1=C2/CC[C@H](Sc3ccccc3)[C@H]2C2(CCCCC/1)OCCO2`, for which the TGI in the experiment with ACHN renal was greater than 100 µM; in the experiment with EKVX NSCLC, 54.5 µM; with HOP-92 NSCLC it was 59.1 µM; in the experiment on MALME-3M melanoma it was 73.8 µM; in the experiment on OVCAR-8 ovarian, greater than 100 µM; in the experiment with RPMI-8226 leukemia, 83.1 µM. The TGI in the experiment with SK-OV-3 ovarian, with SNB-75 CNS and in the experiment on SR leukemia was greater than 100 µM throughout.

In the case of `Cc1ccc(CNc2c3ccccc3nc3cc(NC(=O)CCN4CCCC4)ccc23)cc1`, the GI50 is 0.541 µM in the experiment with ACHN renal; 0.862 µM with EKVX NSCLC; 0.516 µM with HOP-92 NSCLC; 1.51 µM in the experiment on MALME-3M melanoma; 1.02 µM with NCI-H226 lung; 0.412 µM in the experiment on RPMI-8226 leukemia. Further, the GI50 was 1.1 µM with SK-OV-3 ovarian, 1.06 µM in the experiment on SNB-75 CNS and 0.301 µM in the experiment on SR leukemia. The TGI in the experiment with ACHN renal was found to be 1.74 µM; with EKVX NSCLC, 2.25 µM; in the experiment with HOP-92 NSCLC, 2.13 µM; in the experiment with MALME-3M melanoma, 2.92 µM; with NCI-H226 lung, 2.46 µM; with RPMI-8226 leukemia, 1.94 µM. Also, the results for the TGI in the experiment with SK-OV-3 ovarian, in the experiment on SNB-75 CNS and with SR leukemia were 2.79 µM, 2.26 µM and 1.82 µM, respectively.
